Data: patent US6645479B1, “Targeted delivery of active/bioactive and perfuming compositions” (International Flavors & Fragrances Inc., priority 1997, dated 2003)

Experiment: Vapor pressure of fragrance components
Settings: not given

| Compound | Vapor Pressure mm/Hg at 25° C. |
| --- | --- |
| CC(=O)OCc1ccccc1 [benzyl acetate] | 0.1 mm/Hg |
| CC(C)=CCCC(C)CCO (stereo not shown) [citronellol] | 0.009 mm/Hg |
| CC(=O)OC1CCC(C(C)(C)C)CC1 (stereo not shown) [VERTENEX ® HC] | 0.03 mm/Hg |
| C=CC(C)(CCC=C(C)C)OC(C)=O (stereo not shown) [linalyl acetate] | 0.07 mm/Hg |
| C=CCOC(=O)COCCC(C)C [allyl amyl glycolate] | 0.07 mm/Hg |
| CC(=O)C1(C)CC2=C(CCCC2(C)C)CC1C (stereo not shown) [ISO E SUPER ®] | 0.002 mm/Hg |
| CC/C=C\CCOC(C)=O [cis-3-hexenyl acetate] | 2.0 mm/Hg |
| C=CC(C)CCCC(C)(C)O (stereo not shown) [dihydromyrcenol] | 0.09 mm/Hg |
| CC12CCC(CC1=O)C2(C)C (stereo not shown) [camphor] | 0.1 mm/Hg |
| CC1=CC(C)C(C=O)CC1 (stereo not shown) | 0.3 mm/Hg |
| CC(C=O)Cc1ccc(C(C)(C)C)cc1 (stereo not shown) [LILIAL ®] | 0.003 mm/Hg |
| C=CCc1ccc(OC)cc1 [methyl chavicol] | 0.09 mm/Hg |
| CC(C=O)Cc1ccc(C(C)C)cc1 (stereo not shown) [cyclamal] | 0.004 mm/Hg |
| CC(=O)c1cc2c(cc1C)C(C)(C)C(C)CC2(C)C (stereo not shown) [TONALID ®] | 0.0001 mm/Hg |
| CC/C=C\CCOC(=O)c1ccccc1O [cis-3-hexenyl salicylate] | 0.0008 mm/Hg |

Now from value to compound:

| Vapor Pressure mm/Hg at 25° C. | Compound |
| --- | --- |
| 0.1 mm/Hg | CC(=O)OC(C)c1ccccc1 (stereo not shown) [styralyl acetate] |
| 0.002 mm/Hg | peach aldehyde coeur |
| 0.02 mm/Hg | CC1=CCC(C(C)(C)O)CC1 (stereo not drawn) [α-terpineol] |
| 0.05 mm/Hg | C=CC(C)(O)CCC=C(C)C (stereo not shown) [linalool] |
| 0.02 mm/Hg | CC1(C)[C@H]2CC[C@]1(C)[C@H](O)C2 [l-borneol] |
| 0.006 mm/Hg | CC(=O)/C=C/C1=C(C)CCCC1(C)C [β-ionone] |
| 0.02 mm/Hg | OCCc1ccccc1 [β-phenyl ethyl alcohol] |
| 0.09 mm/Hg | CC(=O)O[C@@H]1C[C@H]2CC[C@]1(C)C2(C)C (racemic) [isobornyl acetate] |
| 0.009 mm/Hg | CCCCCCCCCC(C)C=O (stereo not shown) [methyl nonyl acetaldehyde] |
| 0.0003 mm/Hg | CCCCCCC(C=O)=Cc1ccccc1 [hexyl cinnamic aldehyde] |

Experiment: IFF permeation test: permeation rate through wax or polymer matrix
Settings: matrix: carnauba wax
Source text: Referring to FIGS. 4A and 4B, fluid 46 is located in jar 44. Jar 44 has sidearm 45. The fluid 46 reaches fluid level 47. Directly in line with fluid level 47 is membrane 41. The diffusion membrane 41 is held in place with flanges 43 and jar lip 42, using bolts 401a and 401b which secures the flange in place. The sidearm 45 is closed using closure 49. The permeability apparatus is shown using reference numeral 40. The IFF permeability test is based on the use of the apparatus of FIGS. 4A and 4B. The weight of membrane 41 is taken, initially, before being placed within the flange 43 and the jar lip 42. Substance 46 for which the permeability is to be measured is placed into jar 44 to fluid level 47. The apparatus containing fluid 46 remains in place for a fixed period of time. At the end of that period of time, bolts 401a and 401b as well as 401c are loosened, the flange 43 removed and membrane 41 is removed and weighed, thereby gathering sufficient data to determine the permeability of the particular substance 46. […] The Y axis measures weight loss and is indicated by reference numeral 54.

| permeation rate through matrix material | Compound |
| --- | --- |
| 4.4 × 10^−4 | C/C=C(\C)C(=O)OCC [ethyl tiglate] |

Same assay, conditions: matrix: polyamide (MACROMELT 6030)

| permeation rate through matrix material | Compound |
| --- | --- |
| 4.2 × 10^−4 | C/C=C(\C)C(=O)OCC [ethyl tiglate] |

Same assay, conditions: matrix: polyethylene wax, molecular weight 500

| permeation rate through matrix material | Compound |
| --- | --- |
| 2.0 × 10^−5 | C/C=C(\C)C(=O)OCC [ethyl tiglate] |
